# Assay results reported in patent US20250382631A1, “PROTAC-CID SYSTEMS FOR USE IN MULTIPLEX GENE REGULATION” (William Marsh Rice University, priority 2022, published 2025).
# Like-named read-outs stand apart in the source and are kept apart here.
# B1: TRIM24BD-VPR: Fusion protein of VPR with the bromodomain of TRIM24 (SEQ ID NO: 4) (protein)
# chain: MPKKKRKVGGGSPGGGGSPNEDWCAVCQNGGELLCCEKCPKVFHLSCHVPTLTNFPSGEWICTFCRDLSKPEVEYDCDAPSHNSEKKKTEGLVKLTPIDKRKCERLLLFLYCHEMSLAFQDPVPLTVPDYYKIIKNPMDLSTIKKRLQEDYSMYSKPEDFVADFRLIFQNCAEFNEPDSEVANAGIKLENYFEELLKNLYPGGGSRADPKKKRKVEASGSGRADALDDFDLDMLGSDALDDFDLDMLGSDALDDFDLDMLGSDALDDFDLDMLINSRSQYLPDTDDRHRIEEKRKRTYETFKSIMKKSPFSGPTDPRPPPRRIAVPSRSSASVPKPAPQPYPFTSSLSTINYDEFPTMVFPSGQISQASALAPAPPQVLPQAPAPAPAPAMVSALAQAPAPVPVLAPGPPQAVAPPAPKPTQAGEGTLSEALLQLQFDDEDLGALLGNSTDPAVFTDLASVDNSEFQQLLNQGIPVAPHTTEPMLMEYPEAITRLVTGAQRPPDPAPAPLGAPGLPNGLLSGDEDFSSIADMDFSALLGSGSGSRDSREGMFLPKPEAGSAISDVFEGREVCQPKRIRPFHPPGSPWANRPLPASLAPTPTGPVHEPVGSLTPAPVPQPLDPAPAVTPEASHLLEDPDEETSQAVKALREMADTVIPQKEEAAICGQMDLSHPPPRGHLDELTTTLESMTEDLNLDSPLTPELNEILDTFLNDECLLHAMHISTGLSIFDTSLFTSGGGSKRPAATKKAGQAKKKKSR
# B2: BRD4^BD2-VPR: Fusion protein of VPR with bromodomain BD2 of BRD4 (SEQ ID NO: 7) (protein)
# chain: MPKKKRKVGGGSPGGGGSSKVSEQLKCCSGILKEMFAKKHAAYAWPFYKPVDVEALGLHDYCDIIKHPMDMSTIKSKLEAREYRDAQEFGADVRLMFSNCYKYNPPDHEVVAMARKLQDVFEMRFAKMPDGGGSRADPKKKRKVEASGSGRADALDDFDLDMLGSDALDDFDLDMLGSDALDDFDLDMLGSDALDDFDLDMLINSRSQYLPDTDDRHRIEEKRKRTYETFKSIMKKSPFSGPTDPRPPPRRIAVPSRSSASVPKPAPQPYPFTSSLSTINYDEFPTMVFPSGQISQASALAPAPPQVLPQAPAPAPAPAMVSALAQAPAPVPVLAPGPPQAVAPPAPKPTQAGEGTLSEALLQLQFDDEDLGALLGNSTDPAVFTDLASVDNSEFQQLLNQGIPVAPHTTEPMLMEYPEAITRLVTGAQRPPDPAPAPLGAPGLPNGLLSGDEDFSSIADMDFSALLGSGSGSRDSREGMFLPKPEAGSAISDVFEGREVCQPKRIRPFHPPGSPWANRPLPASLAPTPTGPVHEPVGSLTPAPVPQPLDPAPAVTPEASHLLEDPDEETSQAVKALREMADTVIPQKEEAAICGQMDLSHPPPRGHLDELTTTLESMTEDLNLDSPLTPELNEILDTFLNDECLLHAMHISTGLSIFDTSLFTSGGGSKRPAATKKAGQAKKKKSR
# Experiments:
# [1] = PROTAC-CID inducible EYFP gene activation, flow cytometry; format: cell-based, human; settings: Homo sapiens, HEK-293T, FIG. 13A
# Method: (§1) Fluorescence assay using flow cytometry analysis. Cells were treated with 0.05% Trpsin EDTA (Thermo Fisher Scientific no. 25300054) or TrypLE (Thermo Fisher Scientific no. 12605028) after transfection and centrifuged at 3000 g for 5 min. Supernatant was removed and the cell pellet was resuspended with 200 μL phosphate buffered saline (PBS) without calcium and magnesium (Thermo Fisher Scientific no. 10010023). Cells were transferred into 12×75 mm flow tubes (Global Scientific no. 110410). Cells were analyzed by MA900 flow cytometry (SONY). 405 nm laser (FL6 filter) was used for testing the BFP channel. 488 nm (FL1 filter) was used for testing the EYFP and GFP channel. Automated alignment using Automatic Setup Beads kit (SONY no. LE-B3001) is performed before running samples. In FIGS. 3A, 3B, and 17, experiments were performed under 2% FSC, 17% BSC, 24% FL1. In FIG. 18, experiments were performed under 2% FSC, 17% BSC, 27% FL1. All the other experiments were performed under 2% FSC, 17% BSC, 24% FL1 and 27% FL6. Flow cytometry data was processed and analyzed by FlowJo 10. Events were first gated with forward scatter-Area (FSC-A) and side scatter-Area (SSC-A) to select viable cells and remove the debris and dead cells. Cells were further gated with FSC-A and FSC-Height (FSC-H) for selecting single cells. The mean intensity of the reporter fluorescent protein (BFP and EYFP) in viable and single cell populations were calculated by FlowJo 10 as the mean of FL6-A and FL1-A. When calculating the fold change of relative fluorescence units (RFU), the relative fluorescence units of EYFP was calculated by dividing the mean of fluorescence intensity of EYFP with the mean of BFP fluorescence intensity for normalization as the following formula: […]
# (§2) Next, the mean of the normalized relative fluorescence units of induced group were divided by the value of control group for calculating the fold change as the following formula: […]
# (§3) Transfection and microscopy. HEK293T cells (American Type Culture Collection, no. CRL-3216) were cultured with high-glucose Dulbecco's modified Eagle's medium (DMEM) (Thermo Fisher Scientific no. 10569044) with 10% fetal bovine serum (FBS) (Thermo Fisher Scientific no. 10437028) and 1×penicillin-streptomycin (Thermo Fisher Scientific no. 15140122) at 37° C. with 5% CO2. Except for the data in FIGS. 3C, 3E, and 3H, cells were plated into 96 well plate (Corning no. 3598) and transfected by Polyethyleneimine Max (PEI Max) (Polysciences no. 24765-1). 1.5 μL PEI Max (1 mg/mL, pH=7.1) and 100 μl DMEM were mixed with plasmids to be slowly dropped into the cell medium after 30 mins of incubation. Medium was changed 12 hours post-transfection. The inductive small molecules, including Rapamycin (STEM CELL technologies no. 73362), dTAG-13 (TOCRIS no. 6605/5), dTAG^V-1 (TOCRIS no. 6744-5), dBRD9 (TOCRIS no. 6606/5), dTRIM24 (TOCRIS no. 6607/5), MZ1 (TOCRIS no. 6154/5), AT1 (TOCRIS no. 6356/5), TL13-12 (TOCRIS no. 6744/5), TL13-112 (TOCRIS no. 6745/5), dTAG-7 (TOCRIS no. 69125), ZXH3-26 (TOCRIS no. 6713/5) and ABA (GoldBio no. A-050-100), dissolved in Dimethyl sulfoxide (DMSO) (Sigma, no. D8418) were added. For the microscopy observation, the images were taken by Microscopy EVOS (Life Technologies) and processed by ImageJ (Schneider et al., 2012). If not otherwise noted, 60 ng of each plasmid were used for each sample.
# (§4) Step-by-step fluorescence protein activation assay protocol. Reagents: • 1. PEI Max (Polysciences no. 24765-1) • 2. DMEM, high glucose, GlutaMAX™ Supplement, pyruvate (Thermo Fisher Scientific no. 10569044) • 3. Penicillin-Streptomycin (10,000 U/mL) (Thermo Fisher Scientific no. 15140122) • 4. Fetal Bovine Serum 500ML (FBS) (Thermo Fisher Scientific no. 10437028) • 5. TrypLE™ Express Enzyme (1×), phenol red (Thermo Fisher Scientific no. 12605068) • 6. PBS pH=7.4 (Thermo Fisher Scientific no. 10010023) • 7. Sony sorting chip […] for MA900 (SONY no. LE-C3210) • 8. Automatic Setup Beads kit (SONY no. LE-B3001) • 9. […]
# [2] = test system: pUAS-1-driven EYFP expression in HEK293T cells transfected with GAL4- and VPR-fused PROTAC target protein / E3 ubiquitin ligase; experiment: as above; format: cell-based, human; settings: for Bottom (best-fit value) / Span (best-fit value) / Top (best-fit value): Table 4 nonlinear regression of EYFP activation; for Bottom (best-fit value) / Span (best-fit value) / Top (best-fit value) / Hillslope (best-fit value) / logEC50 (best-fit value): FIG. 13A; for Hillslope (best-fit value) / logEC50 (best-fit value): Table 4 nonlinear regression; for increase in EYFP expression / EYFP induction compared to DMSO-treated controls: bromodomain-VPR fusion co-transfected with GAL4-VHL, FIG. 1C 5 μM dTRIM24, FIG. 1D 100 nM MZ1 or 1 μM AT1
# Method: as §1, §2, §3, §4
# [3] = test system: pUAS-2-Fluc expression in HEK293T cells with cognate or non-cognate GAL4/VPR protein pairs; experiment: Orthogonality analysis, Firefly luciferase (Fluc) luminescence; format: cell-based, human; settings: seven different protein pairs, 2 days, FIGS. 2A and 14
# Method: Luciferase luminescence intensity measurement. Before transfection, HEK293T cells were seeded in clear bottom 96 well assay plates (Corning no. 3610) with 100 μL DMEM with 10% FBS and 1× penicillin-streptomycin at 37° C. with 5% CO2. When cells reached 50% confluency, 1.5 μL PEI Max (1 mg/mL, pH=7.1) and 100 μL DMEM were mixed with 60 ng of each plasmid (GAL4 and VPR fused target protein or E3 ubiquitin ligase, pUAS-2-Fluc) for 30 min at room temperature. Mixture was transferred into cells gently. 12 h after transfection, medium was changed, and the inductive small molecules were supplied. 2-days post induction, 120 μL of medium was aspirated from each well containing 200 μL of medium, leaving 80 μL of medium per well, then treated with 40 μL of lysis buffer (500 mM DTT (Sigma no. D0632), 10 mM coenzyme A (RPI no. C95275), 100 mM ATP (Thermo Fisher Scientific no. R1441), 80 mg/mL D-luciferin (GoldBio no. LUCNA-100), Triton lysis buffer (0.1082 M Tris-HCl, 0.0419 M Tris-Base, 75 mM NaCl, 3 mM MgCl2)). Plate was shaken with 20 seconds in “Orbital” mode with frequency of 432 rpm and Amplitude of 1 mm to lysis the cells. Recording the luminescence by plate reader Infinite M200 (TECAN) with 1000 ms integration time using Megellan v1.7 (TECAN). Mean of luciferase luminescence relative light units (RLU) was calculated by the average of three biological replications. Normalized RLU were calculated by dividing RLU of the tested group with mean of RLU of DMSO treated control group for normalization: […]
# [4] = target: GAL4-FKBP12^F36V (human); experiment: cell-based or functional assay
# [5] = Table 4 nonlinear regression, Prism 9 [Agonist] vs. response variable slope (four parameters), no unit in table (the source gives nM), read-out: EC50 (best-fit value)
# [6] = dose-response, read-out: EC50 for gene activation
molecule,measurement,setting,value
"CC1=CC(=O)CC(C)(C)[C@@]1(O)/C=C/C(C)=C\C(=O)O [ABA, abscisic acid]",EC50,[1]; [5],763 nM
same,EC50,[1]; [6],763 nM
same,Bottom (best-fit value),[2],1.587
same,Span (best-fit value),[2],77.84
same,Top (best-fit value),[2],79.43
same,Hillslope (best-fit value),[2],2.083
same,logEC50 (best-fit value),[2],2.882
CC(=O)N[C@H](C(=O)N1C[C@H](O)C[C@H]1C(=O)NCc1ccc(-c2scnc2C)cc1)C(C)(C)SCCCCCCNC(=O)C[C@@H]1N=C(c2ccc(Cl)cc2)c2c(sc(C)c2C)-n2c(C)nnc21 [AT1],orthogonality: Fluc activation with cognate vs non-cognate protein partners,[3],interact with the same protein pairs
Nc1cccc2c1CN(C1CCC(=O)NC1=O)C2=O (centres unmarked) [Lenalidomide],inducible gene activation efficiency compared with dTAG-13 PROTAC-CID,"[2]; CRBN-VPR with GAL4 fused IKZF1 or IKZF3, Lenalidomide 1 μM vs 100 nM dTAG-13, 2 days, FIGS. 11D-11E",significantly less efficient than the dTAG-13 PROTAC-CID system
COc1cc(N2CCN(CCOCCOCCNC(=O)CNc3cccc4c3C(=O)N(C3CCC(=O)NC3=O)C4=O)CC2)ccc1Nc1ncc(Cl)c(Nc2ccccc2S(=O)(=O)C(C)C)n1 (centres unmarked) [TL13-12],orthogonality: Fluc activation with cognate vs non-cognate protein partners,[3],interact with the same protein pairs
Cc1cc(Nc2ncc(Cl)c(Nc3ccccc3S(=O)(=O)C(C)C)n2)c(OC(C)C)cc1C1CCN(CCOCCOCCNC(=O)CNc2cccc3c2C(=O)N(C2CCC(=O)NC2=O)C3=O)CC1 (centres unmarked) [TL13-112],orthogonality: Fluc activation with cognate vs non-cognate protein partners,[3],interact with the same protein pairs
CCCOc1cccc(Oc2cc3c(cc2NS(=O)(=O)c2cccc(C(=O)NCCOCCOCCOCC(=O)N[C@H](C(=O)N4C[C@H](O)C[C@H]4C(=O)NCc4ccc(-c5scnc5C)cc4)C(C)(C)C)c2)n(C)c(=O)n3C)c1 [dTRIM24],EC50,[1]; [5],6350 nM
same,EC50,[1]; [6],6300 nM
same,grades of EYFP intensity,"[2]; HEK293T transfected with GAL4-VHL, TRIM24^BD-VPR, BRD4^BD2-VPR and reporter plasmid, FIG. 2E: dTRIM24, MZ1 100 nM",37 fold
same,Bottom (best-fit value),[2],0.5037
same,Span (best-fit value),[2],1430
same,Top (best-fit value),[2],1431
same,Hillslope (best-fit value),[2],1.463
same,logEC50 (best-fit value),[2],3.803
same,fold change gene activation activity,[2]; at 5 μM,more than 500 fold
same,fold change in EYFP expression,[2]; below 1 μM,less than 100 fold
CRBN-VPR,"EC50 of the inducer dTAG-13 for EYFP gene activation (dose-response, FIG. 13A)",[4],53 nM
same,fold increase in EYFP expression with dTAG-13,[4],> 100 fold
VHL-VPR (from UniProt P40337 1-213),"EC50 of the inducer dTAG^V-1 for EYFP gene activation (dose-response, FIG. 13A)",[4],228 nM
B1,increase in EYFP expression / EYFP induction compared to DMSO-treated controls,[2],592 fold
B2,increase in EYFP expression / EYFP induction compared to DMSO-treated controls,[2],441 fold
